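Interpolation was linear, between the two tested concentrations surrounding the appropriate level; five concentrations were tested over 48 hours in 96-well plates. At the TGI there is no net growth.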
Columns and labels:
Assay in all cases: DTP human tumour cell line panel, 48 h
786-0 renal = tested on: 786-0 renal
A498 renal = tested on: A498 renal
A549 NSCLC = tested on: A549 NSCLC
ACHN renal = tested on: ACHN renal
BT-549 breast = tested on: BT-549 breast
CAKI-1 renal = tested on: CAKI-1 renal
CCRF-CEM leukemia = tested on: CCRF-CEM leukemia
COLO 205 colon = tested on: COLO 205 colon
DU-145 prostate = tested on: DU-145 prostate
EKVX NSCLC = tested on: EKVX NSCLC
HCC-2998 colon = tested on: HCC-2998 colon
HCT-116 colon = tested on: HCT-116 colon
HCT-15 colon = tested on: HCT-15 colon
HL-60(TB) leukemia = tested on: HL-60(TB) leukemia
HOP-62 NSCLC = tested on: HOP-62 NSCLC
HOP-92 NSCLC = tested on: HOP-92 NSCLC
HS 578T breast = tested on: HS 578T breast
HT29 colon = tested on: HT29 colon
IGROV1 ovarian = tested on: IGROV1 ovarian
K-562 leukemia = tested on: K-562 leukemia
KM12 colon = tested on: KM12 colon
LOX IMVI melanoma = tested on: LOX IMVI melanoma
M14 melanoma = tested on: M14 melanoma
MALME-3M melanoma = tested on: MALME-3M melanoma
MCF7 breast = tested on: MCF7 breast
MDA-MB-231 breast = tested on: MDA-MB-231 breast
MDA-MB-435 = tested on: MDA-MB-435
MDA-N = tested on: MDA-N
MOLT-4 leukemia = tested on: MOLT-4 leukemia
NCI-H226 lung = tested on: NCI-H226 lung
NCI-H23 lung = tested on: NCI-H23 lung
NCI-H460 lung = tested on: NCI-H460 lung
NCI-H522 lung = tested on: NCI-H522 lung
NCI/ADR-RES ovarian = tested on: NCI/ADR-RES ovarian
OVCAR-3 ovarian = tested on: OVCAR-3 ovarian
OVCAR-4 ovarian = tested on: OVCAR-4 ovarian
OVCAR-5 ovarian = tested on: OVCAR-5 ovarian
OVCAR-8 ovarian = tested on: OVCAR-8 ovarian
PC-3 prostate = tested on: PC-3 prostate
RPMI-8226 leukemia = tested on: RPMI-8226 leukemia
RXF 393 renal = tested on: RXF 393 renal
SF-268 CNS = tested on: SF-268 CNS
SF-295 CNS = tested on: SF-295 CNS
SF-539 CNS = tested on: SF-539 CNS
SK-MEL-2 melanoma = tested on: SK-MEL-2 melanoma
SK-MEL-5 melanoma = tested on: SK-MEL-5 melanoma
SK-OV-3 ovarian = tested on: SK-OV-3 ovarian
SN12C renal = tested on: SN12C renal
SNB-19 CNS = tested on: SNB-19 CNS
SNB-75 CNS = tested on: SNB-75 CNS
SR leukemia = tested on: SR leukemia
SW-620 colon = tested on: SW-620 colon
T-47D breast = tested on: T-47D breast
TK-10 renal = tested on: TK-10 renal
U251 CNS = tested on: U251 CNS
UACC-257 melanoma = tested on: UACC-257 melanoma
UACC-62 melanoma = tested on: UACC-62 melanoma
UO-31 renal = tested on: UO-31 renal
SK-MEL-28 melanoma = tested on: SK-MEL-28 melanoma

## C=CCN1C(N)=C(C#N)C(C#N)(C#N)C1CCC (stereo not drawn)
786-0 renal
  TGI: > 100 µM
A498 renal
  TGI: > 100 µM
A549 NSCLC
  TGI: > 100 µM
ACHN renal
  TGI: > 100 µM
BT-549 breast
  TGI: > 100 µM
CAKI-1 renal
  TGI: > 100 µM
CCRF-CEM leukemia
  TGI: > 100 µM
COLO 205 colon
  TGI: > 100 µM
DU-145 prostate
  TGI: > 100 µM
EKVX NSCLC
  TGI: > 100 µM
HCC-2998 colon
  TGI: > 100 µM
HCT-116 colon
  TGI: > 100 µM
HCT-15 colon
  TGI: > 100 µM
HL-60(TB) leukemia
  TGI: > 100 µM
HOP-62 NSCLC
  TGI: > 100 µM
HOP-92 NSCLC
  TGI: > 100 µM
HS 578T breast
  TGI: > 100 µM
HT29 colon
  TGI: > 100 µM
IGROV1 ovarian
  TGI: > 100 µM
K-562 leukemia
  TGI: > 100 µM
KM12 colon
  TGI: > 100 µM
LOX IMVI melanoma
  TGI: > 100 µM
M14 melanoma
  TGI: > 100 µM
MALME-3M melanoma
  TGI: > 100 µM
MCF7 breast
  TGI: > 100 µM
MDA-MB-231 breast
  TGI: > 100 µM
MDA-MB-435
  TGI: > 100 µM
MDA-N
  TGI: > 100 µM
MOLT-4 leukemia
  TGI: > 100 µM
NCI-H226 lung
  TGI: > 100 µM
NCI-H23 lung
  TGI: > 100 µM
NCI-H460 lung
  TGI: > 100 µM
NCI-H522 lung
  TGI: > 100 µM
NCI/ADR-RES ovarian
  TGI: > 100 µM
OVCAR-3 ovarian
  TGI: > 100 µM
OVCAR-4 ovarian
  TGI: > 100 µM
OVCAR-5 ovarian
  TGI: > 100 µM
OVCAR-8 ovarian
  TGI: > 100 µM
PC-3 prostate
  TGI: > 100 µM
RPMI-8226 leukemia
  TGI: > 100 µM
RXF 393 renal
  TGI: > 100 µM
SF-268 CNS
  TGI: > 100 µM
SF-295 CNS
  TGI: > 100 µM
SF-539 CNS
  TGI: > 100 µM
SK-MEL-2 melanoma
  TGI: > 100 µM
SK-MEL-5 melanoma
  TGI: > 100 µM
SK-OV-3 ovarian
  TGI: > 100 µM
SN12C renal
  TGI: > 100 µM
SNB-19 CNS
  TGI: > 100 µM
SNB-75 CNS
  TGI: > 100 µM
SR leukemia
  TGI: > 100 µM
SW-620 colon
  TGI: > 100 µM
T-47D breast
  TGI: > 100 µM
TK-10 renal
  TGI: > 100 µM
U251 CNS
  TGI: > 100 µM
UACC-257 melanoma
  TGI: > 100 µM
UACC-62 melanoma
  TGI: > 100 µM
UO-31 renal
  TGI: > 100 µM

## C=CCN1CN(C2CCCCC2)CSC1=S
786-0 renal
  TGI: 18.8 µM
A498 renal
  TGI: 33.2 µM
A549 NSCLC
  TGI: > 65.7 µM
ACHN renal
  TGI: 17.5 µM
BT-549 breast
  TGI: > 80.3 µM
CAKI-1 renal
  TGI: 24 µM
COLO 205 colon
  TGI: 14.3 µM
DU-145 prostate
  TGI: > 26.4 µM
EKVX NSCLC
  TGI: 37.2 µM
HCC-2998 colon
  TGI: 21.1 µM
HCT-116 colon
  TGI: 25.1 µM
HCT-15 colon
  TGI: > 45.7 µM
HL-60(TB) leukemia
  TGI: 0.655 µM
HOP-62 NSCLC
  TGI: > 40.7 µM
HOP-92 NSCLC
  TGI: 39.3 µM
HS 578T breast
  TGI: 18.4 µM
HT29 colon
  TGI: 17 µM
IGROV1 ovarian
  TGI: 31.4 µM
K-562 leukemia
  TGI: > 45.7 µM
KM12 colon
  TGI: 18 µM
LOX IMVI melanoma
  TGI: 27 µM
M14 melanoma
  TGI: 17.8 µM
MALME-3M melanoma
  TGI: 18.7 µM
MCF7 breast
  TGI: 9.11 µM
MDA-MB-231 breast
  TGI: 43.6 µM
MDA-MB-435
  TGI: 12.2 µM
MDA-N
  TGI: 21.7 µM
MOLT-4 leukemia
  TGI: > 22.5 µM
NCI-H226 lung
  TGI: 42.8 µM
NCI-H23 lung
  TGI: 40.5 µM
NCI-H460 lung
  TGI: 29.8 µM
NCI-H522 lung
  TGI: 17.1 µM
NCI/ADR-RES ovarian
  TGI: > 95.5 µM
OVCAR-3 ovarian
  TGI: 29.6 µM
OVCAR-4 ovarian
  TGI: 27.4 µM
OVCAR-5 ovarian
  TGI: 27.6 µM
OVCAR-8 ovarian
  TGI: 40.8 µM
PC-3 prostate
  TGI: 28 µM
RPMI-8226 leukemia
  TGI: > 34.4 µM
RXF 393 renal
  TGI: 18.7 µM
SF-268 CNS
  TGI: 11.8 µM
SF-295 CNS
  TGI: > 81.5 µM
SF-539 CNS
  TGI: 8.04 µM
SK-MEL-2 melanoma
  TGI: 26.9 µM
SK-MEL-28 melanoma
  TGI: 38.5 µM
SK-MEL-5 melanoma
  TGI: 14.2 µM
SK-OV-3 ovarian
  TGI: > 44.1 µM
SN12C renal
  TGI: 27.1 µM
SNB-19 CNS
  TGI: > 100 µM
SNB-75 CNS
  TGI: 25.7 µM
SR leukemia
  TGI: 3.15 µM
SW-620 colon
  TGI: 24.3 µM
T-47D breast
  TGI: 30.4 µM
TK-10 renal
  TGI: 27 µM
U251 CNS
  TGI: 15.7 µM
UACC-257 melanoma
  TGI: 30 µM
UACC-62 melanoma
  TGI: 22.1 µM
UO-31 renal
  TGI: 24 µM

## CC(C)(Oc1ccc(Cl)cc1)C(=O)N(C(=O)N1CCN(c2ccccc2)CC1)c1ccccc1
786-0 renal
  TGI: > 100 µM
A498 renal
  TGI: > 100 µM
A549 NSCLC
  TGI: > 100 µM
ACHN renal
  TGI: > 100 µM
BT-549 breast
  TGI: > 100 µM
CAKI-1 renal
  TGI: > 100 µM
CCRF-CEM leukemia
  TGI: > 100 µM
COLO 205 colon
  TGI: > 100 µM
DU-145 prostate
  TGI: > 100 µM
EKVX NSCLC
  TGI: > 100 µM
HCC-2998 colon
  TGI: > 100 µM
HCT-116 colon
  TGI: > 100 µM
HCT-15 colon
  TGI: > 100 µM
HL-60(TB) leukemia
  TGI: > 100 µM
HOP-62 NSCLC
  TGI: > 100 µM
HOP-92 NSCLC
  TGI: > 100 µM
HS 578T breast
  TGI: > 100 µM
HT29 colon
  TGI: > 100 µM
K-562 leukemia
  TGI: > 100 µM
KM12 colon
  TGI: > 100 µM
LOX IMVI melanoma
  TGI: > 100 µM
M14 melanoma
  TGI: > 100 µM
MALME-3M melanoma
  TGI: > 100 µM
MCF7 breast
  TGI: > 100 µM
MDA-MB-231 breast
  TGI: > 100 µM
MDA-MB-435
  TGI: > 100 µM
MDA-N
  TGI: > 100 µM
MOLT-4 leukemia
  TGI: > 100 µM
NCI-H226 lung
  TGI: > 100 µM
NCI-H23 lung
  TGI: > 100 µM
NCI-H460 lung
  TGI: > 100 µM
NCI-H522 lung
  TGI: > 100 µM
NCI/ADR-RES ovarian
  TGI: > 100 µM
OVCAR-3 ovarian
  TGI: > 100 µM
OVCAR-4 ovarian
  TGI: > 100 µM
OVCAR-5 ovarian
  TGI: > 100 µM
OVCAR-8 ovarian
  TGI: > 100 µM
PC-3 prostate
  TGI: > 100 µM
RXF 393 renal
  TGI: > 100 µM
SF-268 CNS
  TGI: > 100 µM
SF-295 CNS
  TGI: > 100 µM
SF-539 CNS
  TGI: > 100 µM
SK-MEL-2 melanoma
  TGI: > 100 µM
SK-MEL-28 melanoma
  TGI: > 100 µM
SK-MEL-5 melanoma
  TGI: > 100 µM
SK-OV-3 ovarian
  TGI: > 100 µM
SN12C renal
  TGI: > 100 µM
SNB-19 CNS
  TGI: > 100 µM
SNB-75 CNS
  TGI: > 100 µM
SR leukemia
  TGI: > 100 µM
SW-620 colon
  TGI: > 100 µM
T-47D breast
  TGI: > 100 µM
TK-10 renal
  TGI: > 100 µM
U251 CNS
  TGI: > 100 µM
UACC-257 melanoma
  TGI: > 100 µM
UACC-62 melanoma
  TGI: > 100 µM
UO-31 renal
  TGI: > 100 µM

Source: PubChem BioAssay (NCI)
